Experimental data as given in PubChem BioAssay AID179 (DTP/NCI, 2004).
“And” between values parts separate entries of the source, which are not always exact repeats. Identical values can stand only once. The source made the active and inactive calls.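 The calls were made as follows: active = compounds giving half or more protection of infected cells from virus-caused growth loss, again on retest; inactive = the rest.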

Test system: CEM cells HIV-1 protection, formazan growth assay
Experiment: NCI AIDS Antiviral Assay
Conditions: for IC50: measured here: growth of uninfected CEM cells
Outline: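 Soluble formazan readout of cell growth; CEM cells ± HIV-1; 5 drug concs. ≥50% protection → retest; ≥50% again = moderately active; reproducible 100% = confirmed active.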

Row | SMILES | EC50 | IC50 [µM] | outcome
1 | O=C(Cn1c(=O)cc(Nc2ccccc2)c2ccccc21)Nc1ccccc1 | > 200 µM | 89.1 | 
2 | O=C1NC(=S)S/C1=C\c1ccc2c(c1)OCO2 | > 200 µM | 85.1 | 
3 | CCOC(=O)CN1CCC(C(O)c2cc3ccccc3[nH]2)CC1 (stereo unspecified) | > 537 µM | 525 | 
4 | CCN(CC)/C(=C\Cl)Nc1ccccn1 | > 759 µM | 117 | 
5 | Cc1cccc(CC(Cc2ccc(C)cc2C(=O)O)C(=O)O)c1 (stereo unspecified) | > 200 µM | > 200 | 
6 | CN(C)c1cc2c3ccccc3ccc2c2ccccc12 | > 7.41 µM | > 7.41 | 
7 | COc1ccc(/C=C2\N=C3Sc4c(nc[nH]c4=O)N3C2=O)cc1 | > 200 µM | > 200 | 
8 | Cc1ccc(S(=O)(=O)N2CCCCC2)cc1 | > 200 µM | 72.4 | 
9 | COc1ccc(/C=C2\CSC(=O)NC2=O)cc1OC | > 891 µM | 240 | 
10 | CC(C)CCCC(C)[C@H]1CC[C@H]2[C@@H]3CC[C@H]4C[C@@H](CCC=C(c5cc(Cl)c(O)c(C(=O)OCc6ccccc6)c5)c5cc(Cl)c(O)c(C(=O)OCc6ccccc6)c5)CC[C@]4(C)[C@H]3CC[C@]12C (stereo partly specified) |  |  | inactive
11 | COc1ccc(/C=N/n2c(C)nc3c(sc(=S)n3-c3ccccc3)c2=O)cc1 | > 12.6 µM | > 12.6 | 
12 | O=C(CC1(O)C(=O)Nc2c(Cl)ccc(Cl)c21)c1ccco1 (stereo unspecified) | > 398 µM | 77.6 | 
13 | COC1N(C2CC(F)C(CO)O2)C(=O)NC(=O)C1(C)Cl (stereo unspecified) | 14.5 µM and 25.1 µM | 794 | 
14 | O=C1C2CCCC3CCCC(C(=O)N1O)C32 (stereo unspecified) | > 200 µM | 39.8 | 
15 | Cc1ccc(S(=O)(=O)CC2(Br)Cc3ccccc3C2=O)cc1 (stereo unspecified) | > 200 µM | 5.75 | 
16 | CC(=O)NC(NCCN)(c1ccccc1)c1ccccc1 | > 200 µM | > 200 | 
17 | CCOC(=O)CC1NCCc2cc(OC)c(OC)c([N+](=O)[O-])c21 (stereo unspecified) |  |  | inactive
18 | N/C(=N/O)c1nsnc1/C(N)=N\O | > 200 µM | > 200 | 
19 | CCOC(=O)/C=C/c1ccccc1Cl | > 33.9 µM | > 33.9 | 

Row | SMILES | EC50 | IC50 [µM] | outcome
20 | COc1ccc(/C=C/c2nc3ccccc3nc2/C=C/c2ccc(OC)c(OC)c2)cc1OC | > 100 µM | > 100 | 
21 | COc1cccc(C2NC(=O)c3c(n[nH]c3N)S2)c1O (stereo unspecified) | > 200 µM | > 200 | 
22 | CC(=S)N(c1ccccc1)c1ccccc1 | > 200 µM | 158 | 
23 | CC(=O)NC1C(OCc2ccccc2)OC(CO)C(O)C1OC(C)C(=O)NC(C(=O)NC(CCC(=O)NCCCCNc1c2ccccc2nc2cccc([N+](=O)[O-])c12)C(N)=O)C(C)C (stereo unspecified) | > 100 µM | 1.12 | 
24 | Cc1c(CN)c(C)c(CN)c(C)c1CN | > 200 µM | 97.7 | 
25 | CCOc1ccc(NC(=O)/C(=N\NC(C)(C)C)C2C(=O)Nc3ccccc3S2=O)cc1 (stereo unspecified) | > 42.7 µM | > 42.7 | 
26 | Cn1c(=O)c2nc(N3CCOCC3)cnc2n(C)c1=O | > 200 µM | > 200 | 
27 | CNC(=O)OCc1c(COC(=O)NC)c2n(c1C)-c1ccc(OC)cc1CCC2 | > 123 µM | 2.14 | 
28 | COC(=O)c1c(C(=O)OC)c2ccccn2c1-c1cc(OC)c(Br)c(=O)o1 | > 200 µM | > 200 | 
29 | C1=NCCNCCNCCN=Cc2ccccc2OCc2cccc(n2)COc2ccccc21 | > 50.1 µM | 7.76 | 
30 | C1CCC2(CC1)SSC1(CCCCC1)S2 | > 200 µM | 110 | 
31 | Nc1nc(Cl)cc(NCC2(CO)CC(CCc3ccccc3)C2)n1 (stereo unspecified) | > 20 µM | 14.8 | 
32 | Oc1cc2cccc[n+]2c2cccc(Cl)c12 | > 200 µM | 34.7 | 
33 | Clc1ccc(C2C3COc4ccccc4C3=NN2c2ccccc2)cc1 (stereo unspecified) | > 151 µM | 1.95 | 
34 | CC1(C)C2CCC13CS(=O)(=O)N(C(=O)[C@H]1CC=CCC1)C3C2 (stereo partly specified) | > 112 µM | > 112 | 
35 | COc1cc2c(cc1OC)C13CC[N+]4(C)CC5=CCOC6CC(=O)N2C1C6C5CC34[O-] (stereo unspecified) |  |  | inactive
36 | Cc1ccc(/C=N/Nc2ncccn2)s1 | > 200 µM | > 200 | 
37 | O=C(NC(OCc1ccccc1)(C(F)(F)F)C(F)(F)F)OCc1ccccc1 | > 200 µM | 32.4 | 
